# Source: the supplement of paper PMC13380429
# What was measured:
# Details in all cases: 72 h
# Caco-2 [1] = assay: relative viability EC50 (midpoint between 100% and the lowest measured viability); higher = less toxic
# Vero E6 [2] = assay: as above
# HepG2 [3] = assay: as above
# U2OS [4] = assay: as above
# Calu-3 [5] = assay: as above
# Caco-2 [6] = assay: cell viability relative to DMSO; higher = less toxic
# Vero E6 [7] = assay: as above
# HepG2 [8] = assay: as above
# U2OS [9] = assay: as above
# Calu-3 [10] = assay: as above
# Caco-2 [11] = assay: drug sensitivity score (DSS) for viability; higher = more toxic; extreme values may be limits of the assay
# Vero E6 [12] = assay: as above
# HepG2 [13] = assay: as above
# U2OS [14] = assay: as above
# Calu-3 [15] = assay: as above
SMILES,relative viability EC50 (Caco-2 [1]) [µM],relative viability EC50 (Vero E6 [2]) [µM],relative viability EC50 (HepG2 [3]) [µM],relative viability EC50 (U2OS [4]) [µM],relative viability EC50 (Calu-3 [5]) [µM],cell viability (Caco-2 [6]; 1 nM) [%],cell viability (Caco-2 [6]; 10 nM) [%],cell viability (Caco-2 [6]; 100 nM) [%],cell viability (Caco-2 [6]; 1000 nM) [%],cell viability (Caco-2 [6]; 10000 nM) [%],cell viability (Vero E6 [7]; 1 nM) [%],cell viability (Vero E6 [7]; 10 nM) [%],cell viability (Vero E6 [7]; 100 nM) [%],cell viability (Vero E6 [7]; 1000 nM) [%],cell viability (Vero E6 [7]; 10000 nM) [%],cell viability (HepG2 [8]; 1 nM) [%],cell viability (HepG2 [8]; 10 nM) [%],cell viability (HepG2 [8]; 100 nM) [%],cell viability (HepG2 [8]; 1000 nM) [%],cell viability (HepG2 [8]; 10000 nM) [%],cell viability (U2OS [9]; 1 nM) [%],cell viability (U2OS [9]; 10 nM) [%],cell viability (U2OS [9]; 100 nM) [%],cell viability (U2OS [9]; 1000 nM) [%],cell viability (U2OS [9]; 10000 nM) [%],cell viability (Calu-3 [10]; 1 nM) [%],cell viability (Calu-3 [10]; 10 nM) [%],cell viability (Calu-3 [10]; 100 nM) [%],cell viability (Calu-3 [10]; 1000 nM) [%],cell viability (Calu-3 [10]; 10000 nM) [%],drug sensitivity score (Caco-2 [11]),drug sensitivity score (Vero E6 [12]),drug sensitivity score (HepG2 [13]),drug sensitivity score (U2OS [14]),drug sensitivity score (Calu-3 [15])
Cc1cc(C)nc(NS(=O)(=O)c2ccc(NC(=S)NC(=O)COc3ccc(Br)cc3Cl)cc2)n1 [ZCL-278],> 10,> 10,> 10,> 10,> 10,97.7,102,104,92.2,98.7,93.4,97.5,101,103,95.9,108,98.1,100,96.4,98.4,95.6,100,93.5,97.9,93.8,98.4,94.8,103,104,107,0,0,0,0,0
CC(=O)N[C@@H](CS)C(=O)O [acetylcysteine],> 10,> 10,> 10,> 10,> 10,105,87.1,98.1,101,100,104,106,102,103,97.8,99.2,103,94.9,103,104,99.1,97.2,100,95.5,102,101,101,93,96.2,104,0,0,0,0,0
COc1cc(C)c(/C=C/C(C)=C/C=C/C(C)=C/C(=O)O)c(C)c1C [acitretin],> 10,> 10,> 10,> 10,> 10,89.3,93.2,99.3,89.4,91.4,103,99.6,99.6,99.3,102,101,96.7,98.7,106,105,100,101,94.4,93.7,92.1,97.5,94.8,83.9,83.5,75.3,0,0,0,0,3.8
Nc1cc(-c2ccncc2)c[nH]c1=O [amrinone],> 10,> 10,> 10,> 10,> 10,96.2,97.1,92.4,91.8,95.9,95.5,96.2,86.6,100,106,96.2,100,104,97.8,97.3,104,98.3,105,98.9,108,94.9,95.7,93.7,93.9,109,0,0,0,0,0
Cc1cc2ncc(C(=O)NCC(C)(C)NCC(=O)N3CCC[C@H]3C#N)cn2n1 [anagliptin],> 10,> 10,> 10,> 10,> 10,103,93.3,94.6,97.8,100,99.2,99.5,102,98.8,106,102,94.2,102,104,97.9,99.9,101,96.2,104,98.5,97.3,102,94.9,94.6,98.8,0,0,0,0,0
OC[C@H]1O[C@H]([S-])[C@H](O)[C@@H](O)[C@@H]1O.[Au+] [aurothioglucose],> 10,> 10,> 10,2.24,> 10,108,92.2,98.7,91.3,84.2,87.3,91.2,86.7,89.5,117,90.4,106,106,120,97.5,96.1,98.4,98.7,91.8,27.4,101,92.1,97.3,106,100,0.5,0,0,5.4,0
CN(C)C(=O)Oc1cc(OC(=O)N(C)C)cc(C(O)CNC(C)(C)C)c1 (stereo not given) [bambuterol],> 10,> 10,> 10,> 10,> 10,97.7,94.5,89.6,103,104,99.8,97.9,93.1,90.3,101,96.1,97.2,99.1,96.9,95.6,96.4,93.5,95.5,101,104,95.8,98.6,99.2,89.4,117,0,0,0,0,0
O=C(/C=C/c1cccc(S(=O)(=O)Nc2ccccc2)c1)NO [belinostat],0.412,0.252,0.406,0.29,0.506,87.9,96.6,89.3,21.6,0.6,93.2,92.9,83.4,8.4,0.1,98.5,98.7,87.6,22.4,0.3,94.6,94.9,81.9,16,0.9,90.7,89.2,86.6,41,9.9,15.9,18.8,16,17.7,13.1
CC[C@H](CC[C@@H](C)[C@H]1CC[C@H]2[C@@H]3CC=C4C[C@@H](O)CC[C@]4(C)[C@H]3CC[C@]12C)C(C)C [beta-Sitosterol],> 10,> 10,> 10,> 10,> 10,95.1,108,99.4,97.6,107,92.7,105,92.4,99.2,108,88.3,114,93.3,98.8,109,96.4,99.1,99.6,101,97.4,91.6,105,99,93.7,106,0,0,0,0,0
COC(=O)/C=C/C(=O)N[C@@H]1CC[C@@]2(O)[C@H]3Cc4ccc(O)c5c4[C@@]2(CCN3CC2CC2)[C@H]1O5 [beta-funaltrexamine],> 10,> 10,> 10,> 10,> 10,104,91.5,90,94.8,82.4,92.4,96.1,93.1,105,101,93.6,92.8,92.4,90.6,89.2,104,98.7,101,96.3,89.9,95.2,99.5,101,102,99.6,0.7,0,0,0,0
Nc1cc(C(F)(F)F)c(-c2cc(N3CCOCC3)nc(N3CCOCC3)n2)cn1 [buparlisib],0.761,1.22,1.3,1.57,0.434,95.3,99,91.5,53.5,18,101,97,92.9,66.2,17.8,100,96.6,95.7,67.2,10.5,103,102,104,79.4,15.6,116,97.3,87.7,40.5,18,10.3,8.4,9.1,7.9,12.7
CS(=O)(=O)OCCCCOS(C)(=O)=O [busulfan],> 10,> 10,> 10,> 10,> 10,109,93.4,92.1,84.1,96.5,94.9,94.8,99.6,86.2,84.5,107,92.9,112,95.8,79.2,102,95.9,105,98.4,100,101,104,89.7,99.6,106,0.2,1.3,1.2,0,0
C=CCC1(CC(C)C)C(=O)NC(=O)NC1=O [butalbital],> 10,> 10,> 10,> 10,> 10,82.1,114,80.1,105,102,105,106,118,109,89.9,108,99.6,92.5,109,94.8,95.1,97.6,98.8,94.3,112,94.5,96.7,102,103,114,0,0,0,0,0
CCCC[C@H]1OC(=O)c2ccccc21 [butylphthalide],> 10,> 10,> 10,> 10,> 10,111,95.2,102,88.9,102,103,91,105,106,101,104,107,97.2,97.8,94.9,102,98.9,102,95,98.7,103,96.8,98.3,95.5,104,0,0,0,0,0
